Test results as given in patent US8741579B2, “Compounds and methods for the modulation of beta-1 integrin function to mediate tissue repair” (priority 2007, dated 2014).
Where a SMILES comes first, the peptide text is derived from it. The star is where a group is joined. Cbz = O=C(OCc1ccccc1)*; CH2F = FC*

What was measured:
[1] = system: adult human lung fibroblasts (CCD-8Lu) overlayered with NCI-H441 cells; experiment: Caspase 3/7 activity (Caspase-Glo 3/7) in human lung co-culture under cyclic stretch; format: cell-based; conditions: cyclic stretch 6 hours; JB1a 1 μg/ml; ZVAD-fmk 10 or 20 μM
Protocol: (§1) Adult human lung fibroblasts (CCD-8Lu) were seeded onto collagen I coated BioFlex 6 well plates at 0.5×10^6/well. The following day, NCI-H441 were seeded on top of the fibroblasts at the same density. […] Cells were starved with media containing 0.1% FCS. The plates were subjected to stretching at 0-5%, 0-10% or 2-10% sinusoidal stretch at 1 Hz for 6 hours. Control plates on plastic or bioflex plates without stretch were also included. PPE was added at 0.06 or 0.3 U/ml alone or in combination with JB1a (1 μg/ml) and ZVAD-fmk at 10 or 20 μM. At the end of the 6 hour period, the media was aspirated and caspase 3 activity assayed using Caspase-Glo™ 3/7 (Promega) according to the manufacturers' instructions. Separate experiments were performed at up to 6 hours of stretching where the cells were fixed with 4% paraformaldehyde and stained using Alexa-fluor phalloidin and TO-PRO3 (Molecular Probes). Images were acquired using Zeiss Axioskope using a x63 water achroplan objective and analysed using LSM 5 Image software.

[2] = system: adult human lung fibroblasts (CCD-8Lu) overlayered with NCI-H441 cells; experiment: F-actin aggregates (phalloidin staining) in human lung co-culture under stretch; format: cell-based; conditions: stretch up to 6 hours; JB1a 1 μg/ml; ZVAD-fmk
Protocol: as §1

[3] = target: human beta 1 integrin (Integrin beta-1 precursor, Fibronectin receptor subunit beta, Integrin VLA-4 subunit beta, CD29 antigen) (human) (UniProt P05556); experiment: cell-based or functional assay
Chain of UniProt P05556 (P05556 21-798 T112H/S215T): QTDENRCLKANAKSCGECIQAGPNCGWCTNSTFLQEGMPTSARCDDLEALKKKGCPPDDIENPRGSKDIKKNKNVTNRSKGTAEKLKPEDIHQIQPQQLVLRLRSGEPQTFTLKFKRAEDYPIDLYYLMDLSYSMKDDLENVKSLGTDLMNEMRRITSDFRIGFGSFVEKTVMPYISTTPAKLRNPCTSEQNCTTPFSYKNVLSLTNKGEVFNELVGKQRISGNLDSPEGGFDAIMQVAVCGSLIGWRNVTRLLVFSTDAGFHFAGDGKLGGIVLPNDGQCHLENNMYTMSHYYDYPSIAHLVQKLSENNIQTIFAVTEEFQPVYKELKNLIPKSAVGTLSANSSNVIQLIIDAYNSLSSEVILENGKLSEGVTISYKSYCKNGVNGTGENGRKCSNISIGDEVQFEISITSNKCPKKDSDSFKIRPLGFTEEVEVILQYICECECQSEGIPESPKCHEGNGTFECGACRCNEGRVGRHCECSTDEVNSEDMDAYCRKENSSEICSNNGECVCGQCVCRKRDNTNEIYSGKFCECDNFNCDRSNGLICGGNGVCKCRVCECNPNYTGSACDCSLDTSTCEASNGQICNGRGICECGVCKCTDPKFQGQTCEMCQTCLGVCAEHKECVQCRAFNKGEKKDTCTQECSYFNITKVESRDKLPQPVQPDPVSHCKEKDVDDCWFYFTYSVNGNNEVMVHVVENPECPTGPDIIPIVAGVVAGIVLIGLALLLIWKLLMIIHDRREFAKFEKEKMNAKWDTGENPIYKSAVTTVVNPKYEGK

| Molecule | elastase-induced caspase 3 and 7 activation [1] | elastase-induced increase in F-actin aggregates [2] | IL-1beta-stimulated IL-8 secretion by primary human chondrocytes, reduction [3] |
| --- | --- | --- | --- |
| COC(=O)C[C@H](NC(=O)[C@H](C)NC(=O)[C@@H](NC(=O)OCc1ccccc1)C(C)C)C(=O)CF [ZVAD-fmk] (Cbz-Val-Ala-Asp(OMe)-CH2F) | inhibited elastase-induced caspase activation | inhibited |  |
| JB1a monoclonal antibody (JB1A mouse anti-CD29 (Integrin beta-1 subunit) IgG monoclonal antibody, unconjugated, clone JB1a, Millipore, Catalogue number MAB-1965) |  |  | 50% |
